Test: Blocker Index (BI), expert graders smelling isovaleric acid swatches treated with test material
Conditions: test material 50 ppm on swatch with 20 μL 0.08% isovaleric acid, scale 0-3
Description: Blocker materials suitable for use in consumer products of the present invention are chosen for their ability to decrease malodor, while not interfering with perception of a fragrance. Material selection is done by assigning two indices to a test sample material from two reference scales in order to rank odor strengths. The two reference scales are the Fragrance Fidelity Index (FFI) scale and the Blocker Index (BI) scale. The FFI ranks the ability of the test sample material to impart a perceivable odor which could cause interference when combined with another fragrance and the BI ranks the ability of the test sample material to reduce malodor perception. The two methods for assigning the indices to a test sample on the FFI and the BI reference scales are given below.
The first step in the method for assigning a BI to a test sample material on the BI reference scale is to create the BI reference swatches. […] Fabric swatches for this test are white knit polycotton (4 inch×4 inch) swatches from EMC ordered as PC 50/50. The supplier is instructed to strip the swatches first, stripping involves washing twice with a fragrance-free detergent and rinsing three times.
The BI scale contains one clean swatch with no malodor applied. […] These solutions are pipetted to the middle of the swatches. […]

C=C/C(C)=C\CC=C(C)C [Material 524]
BI: 2.8
